Calls of active or inactive are those of the source. No cut-off for these calls is given here.
What was measured:
[1] = tested on: MV4-11; experiment: Growth inhibition of human MV4-11 cells after 72 hrs by calcein AM dye-based fluorescence assay; assay type: functional; settings: MV4-11, 72 h
[2] = target: Receptor-type tyrosine-protein kinase FLT3 (Homo sapiens, UniProt P36888, D835Y); experiment: biochemical; assay type: cell-based, Sf9
Description: Inhibition of N-terminal GST/His6-fused recombinant human FLT3 (R571 to S993 residues) D835Y mutant expressed in Sf9 insect cells using poly (Ala,Glu,Lys,Tyr) 6:2:5:1 hydrobromide as substrate in presence of [gamma-33P]ATP

[3] = target: Receptor-type tyrosine-protein kinase FLT3 (Homo sapiens) (UniProt P36888); experiment: Inhibition of human N-terminal GST-tagged FLT3 cytoplasmic domain expressed in baculovirus expression system at 10 nM
[4] = tested on: MV4-11; experiment: Cell cycle arrest in human MV4-11 cells assessed as accumulation at G1 phase at 0.01 nM after 24 hrs by propidium iodide staining-based flow cytometric method (reference value: 56%); assay type: functional
[5] = tested on: MV4-11; experiment: Cell cycle arrest in human MV4-11 cells assessed as accumulation at S phase at 0.01 nM after 24 hrs by propidium iodide staining-based flow cytometric method (reference value: 28.1%); assay type: functional
[6] = tested on: MV4-11; experiment: Cell cycle arrest in human MV4-11 cells assessed as accumulation at sub-G1 phase at 0.1 nM after 24 hrs by propidium iodide staining-based flow cytometric method (reference value: 9.2%); assay type: functional
[7] = tested on: MV4-11; experiment: Cell cycle arrest in human MV4-11 cells assessed as accumulation at G1 phase at 0.1 nM after 24 hrs by propidium iodide staining-based flow cytometric method (reference value: 56%); assay type: functional
[8] = tested on: MV4-11; experiment: Cell cycle arrest in human MV4-11 cells assessed as accumulation at S phase at 0.1 nM after 24 hrs by propidium iodide staining-based flow cytometric method (reference value: 28.1%); assay type: functional
[9] = tested on: MV4-11; experiment: Cell cycle arrest in human MV4-11 cells assessed as accumulation at S phase at 1 nM after 24 hrs by propidium iodide staining-based flow cytometric method (reference value: 28.1%); assay type: functional
[10] = tested on: MV4-11; experiment: Cell cycle arrest in human MV4-11 cells assessed as accumulation at G2/M phase at 1 nM after 24 hrs by propidium iodide staining-based flow cytometric method (reference value: 15.9%); assay type: functional
[11] = tested on: MV4-11; experiment: Cell cycle arrest in human MV4-11 cells assessed as accumulation at sub-G1 phase at 10 nM after 24 hrs by propidium iodide staining-based flow cytometric method (reference value: 9.2%); assay type: functional
[12] = tested on: MV4-11; experiment: Cell cycle arrest in human MV4-11 cells assessed as accumulation at S phase at 10 nM after 24 hrs by propidium iodide staining-based flow cytometric method (reference value: 28.1%); assay type: functional
[13] = tested on: MV4-11; experiment: Cell cycle arrest in human MV4-11 cells assessed as accumulation at G2/M phase at 10 nM after 24 hrs by propidium iodide staining-based flow cytometric method (reference value: 15.9%); assay type: functional
[14] = tested on: MV4-11; experiment: Cell cycle arrest in human MV4-11 cells assessed as accumulation at sub-G1 phase at 100 nM after 24 hrs by propidium iodide staining-based flow cytometric method (reference value: 9.2%); assay type: functional
[15] = tested on: MV4-11; experiment: Cell cycle arrest in human MV4-11 cells assessed as accumulation at G1 phase at 100 nM after 24 hrs by propidium iodide staining-based flow cytometric method (reference value: 56%); assay type: functional
[16] = tested on: MV4-11; experiment: Cell cycle arrest in human MV4-11 cells assessed as accumulation at G2/M phase at 100 nM after 24 hrs by propidium iodide staining-based flow cytometric method (reference value: 15.9%); assay type: functional
[17] = tested on: K562; experiment: Induction of apoptosis in human K562 cells assessed as increase in caspase-3/7 activity using Ac-DEVD-AMC substrate after 24 hrs by fluorescence assay; assay type: functional, cell-based
[18] = tested on: Mus musculus; experiment: In vivo inhibition of FLT3 ITD mutant in human MV4-11 cells xenografted in athymic nu/nu mouse assessed as decrease in STAT5 phosphorylation at Y694 at 10 mg/kg, ip after 24 hrs by immunoblot method relative to control; assay type: functional; settings: MV4-11, ip
[19] = tested on: Receptor-type tyrosine-protein kinase FLT3 (Homo sapiens), P36888 [UNDEFINED MUTATION]
Description: Inhibition of FLT3 ITD mutant (unknown origin) transfected in mouse BA/F3 cells assessed as growth inhibition after 72 hrs by calcein AM dye-based fluorescence assay

[20] = target: Dual specificity protein kinase CLK1 (Homo sapiens) (UniProt P49759); settings: 10 nM
Chain of Dual specificity protein kinase CLK1 (Homo sapiens) (P49759 whole entry, looked up): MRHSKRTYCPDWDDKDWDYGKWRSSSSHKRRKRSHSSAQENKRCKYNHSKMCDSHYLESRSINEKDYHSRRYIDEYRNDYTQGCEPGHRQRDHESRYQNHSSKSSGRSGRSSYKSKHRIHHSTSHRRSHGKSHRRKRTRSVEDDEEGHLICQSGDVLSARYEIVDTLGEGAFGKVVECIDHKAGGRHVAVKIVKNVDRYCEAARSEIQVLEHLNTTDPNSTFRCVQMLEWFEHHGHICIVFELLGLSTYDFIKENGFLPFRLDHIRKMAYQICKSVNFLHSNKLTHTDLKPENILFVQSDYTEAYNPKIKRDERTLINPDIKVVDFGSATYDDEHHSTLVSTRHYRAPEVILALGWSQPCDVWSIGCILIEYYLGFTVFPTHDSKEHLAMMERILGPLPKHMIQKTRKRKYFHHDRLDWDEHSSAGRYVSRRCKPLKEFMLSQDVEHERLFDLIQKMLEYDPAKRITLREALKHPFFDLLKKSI
Description: Inhibition of human N-terminal GST-tagged CLK1 catalytic domain expressed in baculovirus expression system at 10 nM relative to control

[21] = target: High affinity nerve growth factor receptor (Homo sapiens) (UniProt P04629); settings: 10 nM
Chain of High affinity nerve growth factor receptor (Homo sapiens) (P04629 33-796 limits assumed): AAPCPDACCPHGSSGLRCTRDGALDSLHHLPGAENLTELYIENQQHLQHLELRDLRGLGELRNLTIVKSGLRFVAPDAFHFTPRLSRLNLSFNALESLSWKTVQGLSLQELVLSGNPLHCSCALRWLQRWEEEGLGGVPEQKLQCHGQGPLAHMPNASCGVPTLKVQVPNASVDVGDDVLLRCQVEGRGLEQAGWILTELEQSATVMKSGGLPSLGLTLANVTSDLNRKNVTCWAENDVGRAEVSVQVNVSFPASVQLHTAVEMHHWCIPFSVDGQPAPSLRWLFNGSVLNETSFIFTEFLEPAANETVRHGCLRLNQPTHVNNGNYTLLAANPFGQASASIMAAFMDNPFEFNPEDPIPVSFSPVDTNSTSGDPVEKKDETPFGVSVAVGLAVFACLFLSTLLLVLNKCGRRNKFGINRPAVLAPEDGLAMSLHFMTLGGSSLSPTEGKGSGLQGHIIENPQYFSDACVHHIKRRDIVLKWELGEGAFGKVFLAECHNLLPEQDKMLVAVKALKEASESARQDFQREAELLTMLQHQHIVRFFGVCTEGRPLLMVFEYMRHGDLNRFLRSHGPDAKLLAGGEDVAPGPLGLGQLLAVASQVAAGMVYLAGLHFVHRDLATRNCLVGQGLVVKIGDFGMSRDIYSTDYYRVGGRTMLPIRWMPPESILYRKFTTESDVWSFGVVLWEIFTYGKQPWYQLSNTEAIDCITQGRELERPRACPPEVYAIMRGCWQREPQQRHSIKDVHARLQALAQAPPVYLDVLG
Description: Inhibition of human N-terminal GST-tagged TRK cytoplasmic domain expressed in baculovirus expression system at 10 nM relative to control

[22] = target: Serine/threonine-protein kinase SIK2 (Homo sapiens) (UniProt Q9H0K1); settings: 10 nM
Chain of Serine/threonine-protein kinase SIK2 (Homo sapiens) (Q9H0K1 whole entry, looked up): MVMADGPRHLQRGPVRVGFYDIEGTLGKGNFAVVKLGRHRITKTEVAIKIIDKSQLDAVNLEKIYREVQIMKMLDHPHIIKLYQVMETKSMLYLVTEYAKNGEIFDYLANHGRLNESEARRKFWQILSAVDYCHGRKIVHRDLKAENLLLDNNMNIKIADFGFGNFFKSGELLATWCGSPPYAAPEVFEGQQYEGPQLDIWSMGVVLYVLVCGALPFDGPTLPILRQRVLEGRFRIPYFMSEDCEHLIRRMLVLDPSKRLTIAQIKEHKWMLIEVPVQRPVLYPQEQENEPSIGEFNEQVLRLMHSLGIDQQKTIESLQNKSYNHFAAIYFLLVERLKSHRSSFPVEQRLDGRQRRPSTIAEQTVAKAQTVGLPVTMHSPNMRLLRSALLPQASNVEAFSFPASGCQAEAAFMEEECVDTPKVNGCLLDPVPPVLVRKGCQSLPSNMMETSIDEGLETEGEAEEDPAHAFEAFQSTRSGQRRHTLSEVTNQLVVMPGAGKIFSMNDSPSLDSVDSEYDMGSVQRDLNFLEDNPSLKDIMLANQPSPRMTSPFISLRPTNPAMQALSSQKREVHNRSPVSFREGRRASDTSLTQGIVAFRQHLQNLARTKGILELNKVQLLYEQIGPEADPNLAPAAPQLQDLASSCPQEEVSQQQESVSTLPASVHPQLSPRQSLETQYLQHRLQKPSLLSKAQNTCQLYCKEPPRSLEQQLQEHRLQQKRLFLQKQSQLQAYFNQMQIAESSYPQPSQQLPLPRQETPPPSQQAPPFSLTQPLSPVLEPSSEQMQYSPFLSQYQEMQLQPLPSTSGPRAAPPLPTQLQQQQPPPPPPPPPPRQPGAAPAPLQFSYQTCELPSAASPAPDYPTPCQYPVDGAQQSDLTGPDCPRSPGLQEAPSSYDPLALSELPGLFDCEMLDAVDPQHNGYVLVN
Description: Inhibition of full length human N-terminal GST-tagged QIK expressed in baculovirus expression system at 10 nM relative to control

[23] = target: Serine/threonine-protein kinase SIK1 (Homo sapiens) (UniProt P57059); settings: 10 nM
Chain of Serine/threonine-protein kinase SIK1 (Homo sapiens) (P57059 whole entry): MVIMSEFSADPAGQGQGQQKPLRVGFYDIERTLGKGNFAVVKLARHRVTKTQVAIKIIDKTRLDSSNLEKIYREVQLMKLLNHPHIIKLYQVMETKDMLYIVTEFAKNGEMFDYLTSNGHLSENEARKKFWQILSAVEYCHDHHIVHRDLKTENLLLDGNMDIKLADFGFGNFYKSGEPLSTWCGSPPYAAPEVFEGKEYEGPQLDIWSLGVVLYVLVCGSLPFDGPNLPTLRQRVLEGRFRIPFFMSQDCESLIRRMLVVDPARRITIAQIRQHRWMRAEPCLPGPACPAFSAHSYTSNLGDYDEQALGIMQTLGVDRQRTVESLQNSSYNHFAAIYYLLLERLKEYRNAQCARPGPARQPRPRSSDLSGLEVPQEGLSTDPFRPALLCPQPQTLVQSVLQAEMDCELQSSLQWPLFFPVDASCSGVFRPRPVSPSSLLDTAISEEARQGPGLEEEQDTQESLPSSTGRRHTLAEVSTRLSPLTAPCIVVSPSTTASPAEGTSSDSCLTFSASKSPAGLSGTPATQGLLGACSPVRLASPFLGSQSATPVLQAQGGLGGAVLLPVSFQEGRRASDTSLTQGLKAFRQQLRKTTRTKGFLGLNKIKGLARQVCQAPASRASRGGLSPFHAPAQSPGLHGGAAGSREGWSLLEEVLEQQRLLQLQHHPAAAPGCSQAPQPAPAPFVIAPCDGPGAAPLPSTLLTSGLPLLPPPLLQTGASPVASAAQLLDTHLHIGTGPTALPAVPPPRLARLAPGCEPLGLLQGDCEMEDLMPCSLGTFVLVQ
Description: Inhibition of full length human N-terminal GST-tagged SIK expressed in baculovirus expression system at 10 nM relative to control

[24] = target: Tyrosine-protein kinase Yes (Homo sapiens) (UniProt P07947); settings: 10 nM
Chain of Tyrosine-protein kinase Yes (Homo sapiens) (P07947 2-543 limits assumed): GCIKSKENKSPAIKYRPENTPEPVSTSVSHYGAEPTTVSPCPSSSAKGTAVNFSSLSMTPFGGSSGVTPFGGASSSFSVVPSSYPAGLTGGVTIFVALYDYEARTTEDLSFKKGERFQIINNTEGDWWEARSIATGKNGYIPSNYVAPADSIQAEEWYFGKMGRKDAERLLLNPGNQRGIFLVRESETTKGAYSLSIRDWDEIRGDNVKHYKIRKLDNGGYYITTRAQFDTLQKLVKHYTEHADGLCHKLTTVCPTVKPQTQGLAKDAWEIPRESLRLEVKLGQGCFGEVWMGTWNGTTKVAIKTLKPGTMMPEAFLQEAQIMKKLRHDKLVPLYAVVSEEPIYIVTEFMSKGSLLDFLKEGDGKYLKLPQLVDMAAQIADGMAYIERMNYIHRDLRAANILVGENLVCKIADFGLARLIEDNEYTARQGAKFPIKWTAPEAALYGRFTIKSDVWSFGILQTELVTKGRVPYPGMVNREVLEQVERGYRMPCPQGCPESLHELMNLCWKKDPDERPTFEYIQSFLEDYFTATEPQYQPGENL
Description: Inhibition of human full length N-terminal GST-tagged Yes expressed in baculovirus expression system at 10 nM relative to control

[25] = target: Calcium/calmodulin-dependent protein kinase type II subunit gamma (Homo sapiens) (UniProt Q13555); settings: 10 nM
Chain of Calcium/calmodulin-dependent protein kinase type II subunit gamma (Homo sapiens) (Q13555 whole entry): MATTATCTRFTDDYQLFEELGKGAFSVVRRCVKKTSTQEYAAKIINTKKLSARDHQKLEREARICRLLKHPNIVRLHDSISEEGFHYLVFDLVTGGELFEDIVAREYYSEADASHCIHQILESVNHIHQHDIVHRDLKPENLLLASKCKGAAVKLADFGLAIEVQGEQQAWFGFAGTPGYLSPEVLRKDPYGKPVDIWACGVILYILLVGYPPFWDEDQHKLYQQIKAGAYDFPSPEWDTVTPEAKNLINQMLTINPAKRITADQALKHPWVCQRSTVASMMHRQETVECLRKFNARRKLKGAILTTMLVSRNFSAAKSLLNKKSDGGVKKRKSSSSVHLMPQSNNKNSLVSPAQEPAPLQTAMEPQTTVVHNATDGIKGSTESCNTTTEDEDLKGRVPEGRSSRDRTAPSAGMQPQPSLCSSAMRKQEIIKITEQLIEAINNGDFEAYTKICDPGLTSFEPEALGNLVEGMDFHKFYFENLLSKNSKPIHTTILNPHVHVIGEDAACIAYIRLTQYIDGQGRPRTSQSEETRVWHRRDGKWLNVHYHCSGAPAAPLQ
Description: Inhibition of full length human N-terminal GST-tagged CAMK2gamma expressed in baculovirus expression system at 10 nM relative to control

[26] = target: MAP kinase-interacting serine/threonine-protein kinase 2 (Homo sapiens) (UniProt Q9HBH9); settings: 10 nM
Description: Inhibition of full length human N-terminal GST-tagged MNK2 expressed in baculovirus expression system at 10 nM relative to control

[27] = target: Activated CDC42 kinase 1 (Homo sapiens) (UniProt Q07912); settings: 10 nM
Description: Inhibition of human N-terminal GST-tagged ACK catalytic domain expressed in baculovirus expression system at 10 nM relative to control

[28] = target: Proto-oncogene tyrosine-protein kinase Src (Homo sapiens) (UniProt P12931); settings: 10 nM
Chain of Proto-oncogene tyrosine-protein kinase Src (Homo sapiens) (P12931 2-536 limits assumed): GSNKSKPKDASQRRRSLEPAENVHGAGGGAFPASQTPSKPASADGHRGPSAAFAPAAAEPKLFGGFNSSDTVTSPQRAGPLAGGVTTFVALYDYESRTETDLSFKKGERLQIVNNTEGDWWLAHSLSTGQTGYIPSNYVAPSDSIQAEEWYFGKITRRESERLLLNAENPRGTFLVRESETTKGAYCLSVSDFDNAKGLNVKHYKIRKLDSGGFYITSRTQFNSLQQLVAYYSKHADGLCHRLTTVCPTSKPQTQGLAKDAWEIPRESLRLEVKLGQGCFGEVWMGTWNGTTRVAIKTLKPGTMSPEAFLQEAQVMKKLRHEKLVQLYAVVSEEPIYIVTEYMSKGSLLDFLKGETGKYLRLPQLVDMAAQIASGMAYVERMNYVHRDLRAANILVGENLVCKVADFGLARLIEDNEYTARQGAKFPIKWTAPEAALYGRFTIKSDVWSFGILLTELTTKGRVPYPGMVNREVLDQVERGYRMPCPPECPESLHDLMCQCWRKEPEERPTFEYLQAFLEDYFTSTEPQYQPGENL
Description: Inhibition of full length human N-terminal GST-tagged SRC expressed in baculovirus expression system at 10 nM relative to control

[29] = tested on: Receptor-type tyrosine-protein kinase FLT3 (Homo sapiens), P36888 [UNDEFINED MUTATION]; settings: MV4-11, at 1 nM
Description: Inhibition of FLT3 ITD mutant autophosphorylation at Y842 in human MV4-11 cells at 1 nM after 1 hr by immunoblot analysis

[30] = tested on: Receptor-type tyrosine-protein kinase FLT3 (Homo sapiens), P36888 [UNDEFINED MUTATION]; settings: MV4-11, at 0.01 to 100 nM
Description: Inhibition of FLT3 ITD mutant in human MV4-11 cells assessed as decrease in MEK1/2 phosphorylation at S217/221 at 0.01 to 100 nM after 1 hr by immunoblot analysis

[31] = tested on: Receptor-type tyrosine-protein kinase FLT3 (Homo sapiens), P36888 [UNDEFINED MUTATION]; settings: MV4-11, at 0.01 to 100 nM; remark: listed apart in the source
Description: Inhibition of FLT3 ITD mutant in human MV4-11 cells assessed as decrease in AKT phosphorylation at S473 at 0.01 to 100 nM after 1 hr by immunoblot analysis

[32] = tested on: K562; experiment: cells; settings: Homo sapiens, K562, 72 h
[33] = tested on: U-937; experiment: cells; settings: Homo sapiens, U-937, 72 h
[34] = tested on: MCF7; experiment: cells; settings: Homo sapiens, MCF7, 72 h
[35] = tested on: HCC827; experiment: cells; settings: Homo sapiens, HCC827, 72 h
[36] = in vitro; settings: human, HUVEC
[37] = in vitro; settings: human, BJ cells
[38] = organism: Mus musculus; experiment: animal or person; settings: MV4-11, ip, 2 h, read-out: INH

## N[C@H]1CC[C@H](Nc2nc(Nc3ccc(CN4CCOCC4)cc3)c3ncn(C4CCCC4)c3n2)CC1
[1]
  GI50: 0.002 µM
[2]
  IC50: 0.008 µM
[3]
  inhibition: Active
[4]
  Activity: 5.6%
[5]
  Activity: 29.9%
[6]
  Activity: 11.8%
[7]
  Activity: 59.7%
[8]
  Activity: 28%
[9]
  Activity: 8.6%
[10]
  Activity: 1.1%
[11]
  Activity: 42.9%
[12]
  Activity: 2.7%
[13]
  Activity: 0.8%
[14]
  Activity: 45.9%
[15]
  Activity: 95%
[16]
  Activity: 1.2%
[17]
  Activity: inactive
[18]
  inhibition in vivo at 10 mg/kg: 95%
[19]
  GI50: 0.034 µM
[20]
  inhibition: > 90%
[21]
  inhibition: > 90%
[22]
  inhibition: > 90%
[23]
  inhibition: > 90%
[24]
  inhibition: > 90%
[25]
  inhibition: > 90%
[26]
  inhibition: > 90%
[27]
  inhibition: > 90%
[28]
  inhibition: > 90%
[29]
  inhibition: Active
[30]
  inhibition: Active
[31]
  inhibition: Active
[32]
  GI50: 0.38 µM
[33]
  GI50: 0.664 µM
[34]
  GI50: 0.197 µM
[35]
  GI50: 0.327 µM
[36]
  GI50 at 72 h: 5.87 µM
[37]
  GI50 at 72 h: 12.7 µM
[38]
  inhibition in vivo at 10 mg/kg: 95%
